Source: patent US12122774B2, “Compounds as MYT1 inhibitors” (WIGEN BIOMEDICINE TECHNOLOGY (SHANGHAI) CO., LTD., priority 2022, dated 2024)
Converted amounts (≈) assume the structure as drawn.

Legend:
MIA PaCa-2 cells [1] = test: In vitro anti-proliferative activity against MIA PaCa-2 cells (compound alone); type: cell-based; details: Homo sapiens, MIA PaCa-2, 72 h, intracellular ATP content
Procedure: MIA PaCa-2 cells were seeded on a 384-well plate at 3000 cells/well. After overnight adherence culture, DMSO or the compounds serially diluted 1:5 from 10 µM were added. The viability was assessed 72 h after dosing by measuring the intracellular ATP content. The inhibition percentage of viable cells by the compounds was calculated by comparing with the DMSO group, and the IC50 value was calculated.

MIA PaCa-2 cells [2] = test: In vitro anti-proliferative activity in combination with gemcitabine against MIA PaCa-2 cells; type: cell-based
Procedure: MIA PaCa-2 cells were seeded on a 384-well plate at 3000 cells/well, and 20 nM gemcitabine was added. After overnight adherence culture, DMSO or the compounds serially diluted 1:5 from 1000 nM were added. The viability was assessed 72 h after dosing by measuring the intracellular ATP content. The inhibition percentage of viable cells by the compounds was calculated by comparing with the DMSO group, and the IC50 value was calculated.

[3] = In vivo pharmacokinetic experiment; set-up: species or system CD-1 female mice; details: mice
Procedure: CD-1 female mice aged 7 to 10 weeks were intravenously administered and orally administered at a dose of 2 mg/kg and 10 mg/kg, respectively. The mice were fasted for at least 12 h before the administration and given food 4 h after the administration, and they were given ad libitum access to water during the experiment. On the day of the experiment, animals in the intravenous group were administered the corresponding compound by single injection via the tail vein at an administration volume of 10 mL/kg. Animals in the oral group were administered the corresponding compound by single intragastric injection at an administration volume of 10 mL/kg. The animals were weighed before administration, and the administration volume was calculated according to the body weight. The sample collection time was 0.083 h (injection group), 0.167 h, 0.5 h, 1 h, 2 h, 4 h, 8 h, and 24 h. About 200 μL of whole blood was collected through the submaxillary venous plexus at each time point and used to prepare plasma for concentration determination by high-performance liquid chromatography-tandem mass spectrometry (LC-MS/MS). All animals were euthanized with CO2 anesthesia after the PK samples were collected at the last time point. The plasma concentrations were processed using a non-compartmental model of Phoenix WinNonlin™ version 8.3 (Certara) pharmacokinetic software, and the pharmacokinetic parameters were calculated using a linear-log trapezoidal method.

[4] = test system: MDCK cells stably transduced with MDR1 (MDCK-MDR1); test: in vitro; details: MDCK-MDR1
Procedure: (§1) In vitro passive permeability or the ability to serve as a P-glycoprotein (P-gp) transport substrate was tested using MDCK cells (MDCK wild type) or MDCK cells stably transduced with MDR1 (MDCK-MDR1), respectively. The permeability experiment was performed in duplicate in a transwell system at a single concentration (5 μM). The cells were incubated for 90 min. Apical-to-basolateral (A to B, A-B) transport and basolateral-to-apical (B to A, B-A) transport of the corresponding compound were determined, and the permeation rate (apparent permeability) (Papp×10^−6 cm/sec) and efflux ratio (Papp (B-A)/Papp (A-B)) of the test compound were calculated.

[5] = test system: P-glycoprotein (P-gp, MDR1); test: in vitro; details: dog
Procedure: as §1

in vitro = details: dog, MDCK
Procedure: as §1

[6] = In vitro solubility experiment; type: physicochemical; details: for solubility at 0.5 h: thermodynamic from solid
Procedure: (§2) Preparation of a standard curve: 10.01 mg of sample was weighed out and placed in a volumetric flask, and the volume was brought to 10 mL with acetonitrile/water (v/v, 9/1) to prepare 1.001 mg/mL of standard solution; the standard solution was then serially diluted to 0.5005 mg/mL, 0.1001 mg/mL, 0.05005 mg/mL, 0.01001 mg/mL, and 0.001001 mg/mL to generate the standard curve, and a linear equation was fitted by taking the peak area of the sample as a vertical axis and the concentration as a horizontal axis. Solubility and stability test: 15 mg of sample was added to 3 mL of vehicle (FaSSIF, FeSSIF, SGF, or water) to prepare a corresponding suspension at a target concentration of 5 mg/mL. The prepared suspension was stirred on a shaker (800 rpm) at 37° C. for 0.5 h, and the suspension was then filtered. The filtrate was diluted with a diluent to a corresponding multiple so that the peak height could not exceed the standard curve, and the solubility and purity were detected using HPLC.

[7] = In vitro stability experiment (HPLC purity of filtrate); type: physicochemical
Procedure: as §2

[8] = In vitro solubility experiment; type: physicochemical; details: organic solvent or mixture, thermodynamic from solid
[9] = female, CD-1, mouse, plasma, iv, injection 2 mg/kg
[10] = female, CD-1, mouse, plasma, oral administration 10 mg/kg
[11] = FaSSIF, initial pH 6.52, 37° C.
[12] = FeSSIF, initial pH 4.98, 37° C.

In the case of `Cc1cc2c(C(N)=O)c(N)n(-c3c(C)c(O)cc(F)c3C)c2nc1C` (single isomer, unassigned) [Compound 2], the IC50 (MIA PaCa-2 cells [1]) is reported as 4320 nM, the “Anti-proliferative activity against MIA PaCa-2 cells in combination with gemcitabine” value (MIA PaCa-2 cells [2]; in words) is reported as “stronger anti-proliferative activity than that of RP-6306” and the IC50 (MIA PaCa-2 cells [2]; read-out: Anti-proliferative activity against MIA PaCa-2 cells (20 nM gemcitabine) IC50, with 20 nM gemcitabine, 72 h, intracellular ATP content) is reported as 18 nM. The AUC(0-t) [3, 9] was 338 ng·h/mL, the half-life [3, 9] was 3.32 h and the Vd ([3]; female, CD-1, mouse, plasma, iv, injection 2 mg/kg, read-out: Vdss) was 6.76 L/kg. For the same molecule, the AUC(0-t) [3, 10] was 638 ng·h/mL, the Cmax [3, 10] was 603 ng/mL and the half-life [3, 10] was 3.84 h. The Cl ([3]; injection 2 mg/kg) was 94.4 mL/min/kg, the F % ([3]; oral administration 10 mg/kg) was 44.5% and the “Half-life T1/2 compared to RP-6306” value ([3]; in words) was “longer half-life T1/2 compared to RP-6306”. For the same molecule, the “Vdss compared to RP-6306” value ([3]; in words) was “greater increase in Vdss compared to RP-6306”, the “Permeability compared to RP-6306” value [4] was “superior permeability to that of RP-6306” and the efflux ratio at 90 min, 5 μM ([5]; MDCK-MDR1) was 1.71. For the same molecule, the Papp A→B at 90 min, 5 µM ([5]; MDCK-MDR1, Papp Mean) was 20.5 ×10⁻⁶ cm/s, the Papp B→A at 90 min, 5 µM ([5]; MDCK-MDR1, Papp Mean) was 35 ×10⁻⁶ cm/s and the Papp A→B at 90 min, 5 µM ([5]; MDCK-MDR1, Papp Sample - 01) was 21.1 ×10⁻⁶ cm/s. For the same molecule, the Papp B→A at 90 min, 5 µM ([5]; MDCK-MDR1, Papp Sample - 01) was 35.3 ×10⁻⁶ cm/s, the Papp A→B at 90 min, 5 µM ([5]; MDCK-MDR1, Papp Sample - 02) was 19.9 ×10⁻⁶ cm/s and the Papp B→A at 90 min, 5 µM ([5]; MDCK-MDR1, Papp Sample - 02) was 34.8 ×10⁻⁶ cm/s. It also gave an efflux ratio at 90 min, 5 μM (in vitro) of 1.56, a Papp A→B at 90 min, 5 µM (in vitro; Papp Mean) of 27.1 ×10⁻⁶ cm/s and a Papp B→A at 90 min, 5 µM (in vitro; Papp Mean) of 42.2 ×10⁻⁶ cm/s. It also gave a Papp A→B at 90 min, 5 µM (in vitro; Papp Sample - 01) of 27.9 ×10⁻⁶ cm/s, a Papp B→A at 90 min, 5 µM (in vitro; Papp Sample - 01) of 40 ×10⁻⁶ cm/s and a Papp A→B at 90 min, 5 µM (in vitro; Papp Sample - 02) of 26.3 ×10⁻⁶ cm/s. The Papp B→A at 90 min, 5 µM (in vitro; Papp Sample - 02) was 44.5 ×10⁻⁶ cm/s, the “Solubility compared to RP-6306” value ([6]; FaSSIF, FeSSIF, SGF, water, methanol, and tetrahydrofuran, in words) was “higher solubility in various vehicles” and the solubility at 0.5 h ([6]; simulated gastric fluid, SGF, initial pH 1.2, 37° C.) was 4860 µg/mL (≈ 14.2 mM). It also gave a solubility at 0.5 h [6, 11] of 61 µg/mL (≈ 0.178 mM), a solubility at 0.5 h [6, 12] of 327 µg/mL (≈ 0.955 mM) and a solubility at 0.5 h ([6]; Water, initial pH 7.7, 37° C.) of 270 µg/mL (≈ 0.789 mM). The “Stability compared to RP-6306” value ([7]; FaSSIF, FeSSIF, and water, in words) was “more stable than RP-6306”, the “HPLC purity 0.5 h” value [7, 11] was 88.76 %, 220 nm and the “HPLC purity 0.5 h” value [7, 12] was 95.98 %, 220 nm. For the same molecule, the “HPLC purity 0.5 h” value ([7]; SGF, initial pH 1.2, 37° C.) was 98.69 %, 220 nm, the “HPLC purity 0.5 h” value ([7]; Water, initial pH 7.7, 37° C.) was 96.4 %, 220 nm and the solubility at 0.5 h ([8]; methanol) was 40600 µg/mL (≈ 118 mM). It also gave a solubility at 0.5 h ([8]; tetrahydrofuran) of 6110 µg/mL (≈ 17.9 mM).
